Assay results reported in ChEMBL document CHEMBL5120816, “Abietane diterpenes from Abies spectabilis and their anti-pancreatic cancer activity against the MIA PaCa-2 cell line” (Bioorg Med Chem Lett, 2022).
The source made the active and inactive calls. The rule behind the calls is not given here.

What was measured:
MIA PaCa-2 [1] = experiment: Preferential cytotoxicity against human MIA PaCa-2 cells in nutrient-deprived medium; assay type: functional
[2] = Toxicity against human MIA PaCa-2 cells in nutrient-rich medium (DMEM); assay type: cell-based
MIA PaCa-2 [3] = experiment: Induction of cellular morphology changes in human MIA PaCa-2 cells assessed as rounding of cells and membrane rupture at 6.25 to 10 uM incubated for 24 hrs in nutrient-deprived medium by ethidium bromide-acridine orange double staining based EVOS FL digital microscopy"; assay type: functional, cell-based; conditions: dose 6.25-10 µM, DDE = dose-dependent effect
MIA PaCa-2 [4] = experiment: Induction of cell death in human MIA PaCa-2 cells assessed as rounding of cells and membrane rupture at 5 uM incubated for 24 hrs in nutrient-deprived medium by ethidium bromide-acridine orange double staining based EVOS FL digital microscopy"; assay type: functional
MIA PaCa-2 [5] = experiment: Inhibition of cell migration of human MIA PaCa-2 cells assessed as open area level at 20 uM incubated for 24 hrs in nutrient-deprived medium by quantitative real-time cancer cell migration assay (reference value: 100%); assay type: functional; design: scale not given: the % may be the effect or the level left
MIA PaCa-2 [6] = experiment: Inhibition of cell migration of human MIA PaCa-2 cells assessed as open area level at 20 uM incubated for 48 hrs in nutrient-deprived medium by quantitative real-time cancer cell migration assay (reference value: 8.9%); assay type: functional; design: scale not given: the % may be the effect or the level left
MIA PaCa-2 [7] = experiment: […] in human MIA PaCa-2 cells assessed as membrane blebbing , cell rupture and leakage of intracellular components into the medium at 20 uM incubated for 24 hrs in nutrient-deprived medium by Hoechst 33342 staining based assay"; assay type: functional
MIA PaCa-2 [8] = experiment: Induction of apoptosis in human MIA PaCa-2 cells assessed as down regulation of Bcl2 expression at 10 to 20 uM incubated for 24 hrs in nutrient-deprived medium by Western blot analysis; assay type: functional, cell-based; conditions: dose 10-20 µM
MIA PaCa-2 [9] = experiment: Induction of apoptosis in human MIA PaCa-2 cells assessed as down regulation of Bcl-xL expression at 10 to 20 uM incubated for 24 hrs in nutrient-deprived medium by Western blot analysis; assay type: functional, cell-based; conditions: dose 10-20 µM
MIA PaCa-2 [10] = experiment: Induction of apoptosis in human MIA PaCa-2 cells assessed as down regulation of caspase-3 expression at 10 to 20 uM incubated for 24 hrs in nutrient-deprived medium by Western blot analysis; assay type: functional, cell-based; conditions: dose 10-20 µM
MIA PaCa-2 [11] = experiment: Inhibition of AKT S473 phosphorylation in human MIA PaCa-2 cells at 10 to 20 uM incubated for 6 hrs in nutrient-deprived medium by Western blot analysis; assay type: cell-based; conditions: dose 10-20 µM
[12] = target: Serine/threonine-protein kinase mTOR (Homo sapiens) (UniProt P42345); experiment: Inhibition of mTOR S2481 phosphorylation in human MIA PaCa-2 cells at 10 to 20 uM incubated for 6 hrs in nutrient-deprived medium by Western blot analysis; assay type: cell-based; conditions: dose 10-20 µM
[13] = Effect on total AKt protein level in human MIA PaCa-2 cells at 10 to 20 uM incubated for 6 hrs in nutrient-deprived medium by Western blot analysis; assay type: toxicity, cell-based; conditions: mia paca-2, 6 h, dose 10-20 µM
[14] = Effect on total mTOR protein level in human MIA PaCa-2 cells at 10 to 20 uM incubated for 6 hrs in nutrient-deprived medium by Western blot analysis; assay type: toxicity, cell-based; conditions: mia paca-2, 6 h, dose 10-20 µM
MIA PaCa-2 [15] = experiment: Down regulation of autophagy marker expression in human MIA PaCa-2 cells assessed as reduction in Atg5 expression at 10 to 20 uM in nutrient-deprived medium by Western blot analysis; assay type: functional, cell-based; conditions: dose 10-20 µM
MIA PaCa-2 [16] = experiment: Down regulation of autophagy marker expression in human MIA PaCa-2 cells assessed as reduction in Atg7 expression at 10 to 20 uM in nutrient-deprived medium by Western blot analysis; assay type: functional, cell-based; conditions: dose 10-20 µM
MIA PaCa-2 [17] = experiment: Down regulation of autophagy marker expression in human MIA PaCa-2 cells assessed as reduction in Atg12 expression at 10 to 20 uM in nutrient-deprived medium by Western blot analysis; assay type: functional, cell-based; conditions: dose 10-20 µM
MIA PaCa-2 [18] = experiment: Down regulation of autophagy marker expression in human MIA PaCa-2 cells assessed as reduction in LC3-I expression at 10 to 20 uM in nutrient-deprived medium by Western blot analysis; assay type: functional, cell-based; conditions: dose 10-20 µM
MIA PaCa-2 [19] = experiment: Down regulation of autophagy marker expression in human MIA PaCa-2 cells assessed as reduction in LC3-II expression at 10 to 20 uM in nutrient-deprived medium by Western blot analysis; assay type: functional, cell-based; conditions: dose 10-20 µM

For `C[C@]12CCC[C@@](C)(C(=O)O)[C@@H]1CCC1=CC(=O)CC[C@@H]12`, the PC50 (MIA PaCa-2 [1]) was 55.5 µM and the Activity [2] was “Non-Toxic”.

For `CC(C)[C@]1(O)C=C2C(=O)C[C@@H]3[C@](C)(CCC[C@@]3(C)C(=O)O)[C@H]2CC1`, the PC50 (MIA PaCa-2 [1]) was >100 µM and the Activity [2] was “Non-Toxic”.

With `C=C/C(C)=C\C[C@@H]1[C@@]2(C)CCCC(C)(C)[C@@H]2CC(=O)[C@@]1(C)O` the PC50 (MIA PaCa-2 [1]) was 15.2 µM and the Activity [2] was “Non-Toxic”.

With `CC(C)[C@@]1(O)C=C2C(=O)C[C@@H]3[C@](C)(CCC[C@@]3(C)C(=O)O)[C@H]2CC1` the PC50 (MIA PaCa-2 [1]) was 70.7 µM and the Activity [2] was “Non-Toxic”.

For `CC(C)[C@@]1(O)C=C2C(=O)C[C@H]3[C@](C)(COC(=O)CCC(=O)O)CCC[C@]3(C)[C@H]2CC1`, the PC50 (MIA PaCa-2 [1]) was 82.9 µM and the Activity [2] was “Non-Toxic”.

In the case of `C[C@@]1(CO)CCC[C@]2(C)[C@H]3CCC(=O)C=C3CC[C@@H]12`, the PC50 (MIA PaCa-2 [1]) is reported as 35.8 µM and the Activity [2] is reported as “Non-Toxic”.

For `CC(C)C1=CC[C@H]2C(=C1)C(=O)C[C@@H]1[C@]2(C)CCC[C@@]1(C)C(=O)O` [ABIESADINE E], the PC50 (MIA PaCa-2 [1]) was 42.3 µM and the Activity [2] was “Non-Toxic”.

In the case of `COc1cc(C[C@H]2C(=O)OC[C@@H]2Cc2ccc(OC)c(OC)c2)ccc1O` [ARCTIGENIN], the PC50 (MIA PaCa-2 [1]) is reported as 0.7 µM and the Activity [2] is reported as “Non-Toxic”.

With `CC(C)c1ccc2c(c1)CC[C@H]1[C@](C)(C(=O)O)CCC[C@]21C` [DEHYDROABIETIC ACID] the PC50 (MIA PaCa-2 [1]) was 16.9 µM and the Activity [2] was “Non-Toxic”.

With `CC(C)c1ccc2c(c1)CC[C@H]1[C@](C)(CO)CCC[C@]21C` [POMIFERIN A] the PC50 (MIA PaCa-2 [1]) was 6.6 µM, the Activity [2] was “Non-Toxic” and the Activity (MIA PaCa-2 [3]) was “Dde”. The Activity (MIA PaCa-2 [4]) was 100%, the Activity (MIA PaCa-2 [5]) was 64% and the Activity (MIA PaCa-2 [6]) was 30.8%. For the same compound, the Activity (MIA PaCa-2 [7]) was “Active”, the Activity (MIA PaCa-2 [8]) was “Active” and the Activity (MIA PaCa-2 [9]) was “Active”. For the same compound, the Activity (MIA PaCa-2 [10]) was “Active”, the inhibition (MIA PaCa-2 [11]) was “Active” and the inhibition [12] was “Active”. The Activity [13] was “Non-Toxic”, the Activity [14] was “Non-Toxic” and the Activity (MIA PaCa-2 [15]) was “Active”. The Activity (MIA PaCa-2 [16]) was “Active”, the Activity (MIA PaCa-2 [17]) was “Active” and the Activity (MIA PaCa-2 [18]) was “Active”. The Activity (MIA PaCa-2 [19]) was “Active”.
